Read-outs that look alike come from different tables or passages of the source.
Legend:
[1] = molecular target: T1, RORγ ligand binding domain (LBD) (Homo sapiens, UniProt P51449); assay: TR-FRET Activity Assay (ligand sensing, RORγ-LBD / coactivator peptide interaction, LANCE); type: biochemical
T1 construct: made in house; host or cells: E. coli BL-21 (BL3), vector pDEST15
T1 sequence (P51449 269-508 limits assumed): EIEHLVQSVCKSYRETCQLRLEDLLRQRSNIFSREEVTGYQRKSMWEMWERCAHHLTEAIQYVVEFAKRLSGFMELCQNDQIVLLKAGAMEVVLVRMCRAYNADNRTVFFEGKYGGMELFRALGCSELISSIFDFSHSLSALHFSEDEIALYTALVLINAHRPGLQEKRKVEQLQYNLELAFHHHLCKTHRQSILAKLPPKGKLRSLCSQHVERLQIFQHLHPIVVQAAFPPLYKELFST

RORγ = molecular target: T2, RORγ (UniProt P51449); assay: RORγ Gal4 Reporter Gene Assay in 293T cells (firefly and renilla luciferase); type: cell-based, human
T2 sequence (P51449 1-518): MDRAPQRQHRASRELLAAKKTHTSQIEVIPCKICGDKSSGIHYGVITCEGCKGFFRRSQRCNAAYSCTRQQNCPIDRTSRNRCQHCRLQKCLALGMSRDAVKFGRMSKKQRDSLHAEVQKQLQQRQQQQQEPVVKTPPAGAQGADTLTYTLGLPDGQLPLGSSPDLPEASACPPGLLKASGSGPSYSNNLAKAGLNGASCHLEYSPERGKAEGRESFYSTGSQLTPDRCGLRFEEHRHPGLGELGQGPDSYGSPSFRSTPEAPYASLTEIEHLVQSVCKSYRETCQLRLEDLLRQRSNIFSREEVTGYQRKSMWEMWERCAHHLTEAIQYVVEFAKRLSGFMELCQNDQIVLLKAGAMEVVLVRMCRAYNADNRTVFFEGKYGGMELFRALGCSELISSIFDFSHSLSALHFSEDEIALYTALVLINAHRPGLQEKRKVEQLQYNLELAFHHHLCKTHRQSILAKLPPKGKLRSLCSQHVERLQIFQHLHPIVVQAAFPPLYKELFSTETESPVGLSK

[2] = first value of the cell FRET/FF/REN, TR-FRET activity assay, read-out: pIC50 (FRET) (converted)
[3] = second value of the cell, Gal4 reporter gene assay in 293T cells, firefly luciferase
[4] = third value of the cell, Gal4 reporter gene assay in 293T cells, renilla normalised luciferase

| Compound | IC50 [1, 2] | pIC50 (FF) (RORγ; [3]) | pIC50 (REN) (RORγ; [4]) | IC50 [1] | pIC50 (FF) (RORγ) | pIC50 (REN) (RORγ) |
| --- | --- | --- | --- | --- | --- | --- |
| Cc1c(C(=O)NC2CCOCC2)cc(-c2ccc(C(=O)NCC(F)(F)F)c(C(C)(C)C)c2)n1CC1CCCCC1 [6/2] | 3.16 µM | 6.5 | 6.4 | – | – | – |
| Cc1c(C(=O)NC2CCOCC2)cc(-c2ccc(C(N)=O)c(C(C)(C)C)c2)n1CC1CCCCC1 [6/3] | – | – | – | 7.94 µM | 5.1/5.9/5.7 | 5.1/5.9/5.7 |
| CNC(=O)c1ccc(-c2cc(C(=O)NC3CCOCC3)c(C)n2CC2CCCCC2)cc1C(C)(C)C [6/4] | 10 µM | < 4.7 | < 4.7 | – | – | – |
| Cc1c(C(=O)NC2CCOCC2)cc(-c2ccc(C(=O)N(C)C)c(C(C)(C)C)c2)n1CC1CCCCC1 [6/5] | 2.51 µM | 6.5 | 6.4 | – | – | – |
| Cc1c(C(=O)NC2CCOCC2)cc(-c2ccc(C(=O)NC3CCCCC3)c(C(C)(C)C)c2)n1CC1CCCCC1 [6/6] | – | – | – | 0.631 µM | 6.2/6.8/6.7 | 6.2/6.8/6.7 |
| Cc1c(C(=O)NC2CCOCC2)cc(-c2ccc(C(=O)NCC3CCCCC3)c(C(C)(C)C)c2)n1CC1CCCCC1 [6/7] | – | – | – | 1 µM | 6.0/6.5/6.4 | 6.0/6.5/6.4 |
| Cc1c(C(=O)NC2CCOCC2)cc(-c2ccc(C(=O)NC(C)(C)C)c(C(F)(F)F)c2)n1CC1CCCCC1 [6/8] | – | – | – | 10 µM | 5.0/6.8/7.3 | 5.0/6.8/7.3 |
| Cc1c(C(=O)NC2CCOCC2)cc(-c2ccc(C(=O)NC3CCCCC3)c(C(F)(F)F)c2)n1CC1CCCCC1 [6/9] | 10 µM | 6.4 | 6.2 | – | – | – |
| Cc1c(C(=O)NC2COC2)cc(-c2cc(C(C)(C)C)cc(C(C)(C)C)c2)n1S(=O)(=O)N1CCC(C)CC1 [7/1] | 0.316 µM | 6.7 | 6.8 | – | – | – |
| Cc1c(C(=O)NC2COC2)cc(-c2cc(C(C)(C)C)cc(C(C)(C)C)c2)n1S(=O)(=O)N1CCCC(C)C1 (stereo not drawn) [7/2] | – | – | – | 0.251 µM | 6.6/7.0/7.0 | 6.6/7.0/7.0 |
| Cc1c(C(=O)NC2COC2)cc(-c2cc(C(C)(C)C)cc(C(C)(C)C)c2)n1S(=O)(=O)N1CC(C)CC(C)C1 (stereo not drawn) [7/3] | 0.251 µM | 6.6 | 6.7 | – | – | – |
| Cc1c(C(=O)NC2COC2)cc(-c2cc(C(C)(C)C)cc(C(C)(C)C)c2)n1S(=O)(=O)N1CCCCCC1 [7/4] | 0.2 µM | 7.1 | 7.1 | – | – | – |
| Cc1c(C(=O)NC2COC2)cc(-c2cc(C(C)(C)C)cc(C(C)(C)C)c2)n1S(=O)(=O)N(C)C1CCCCC1 [7/5] | – | – | – | 0.316 µM | 6.5/6.3/6.4 | 6.5/6.3/6.4 |
| Cc1c(C(=O)NC2COC2)cc(-c2cc(C(C)(C)C)cc(C(C)(C)C)c2)n1S(=O)(=O)N1CCC2(CCCC2)C1 [7/6] | 0.398 µM | 6.6 | 6.5 | – | – | – |
| Cc1c(C(=O)NCC(C)(C)O)cc(-c2cc(C(C)(C)C)cc(C(C)(C)C)c2)n1S(=O)(=O)N1CCCCC1 [7/7] | 0.398 µM | 6.5 | 6.6 | – | – | – |
| Cc1c(C(=O)NC2COC2)cc(-c2cn(S(=O)(=O)N3CCCCC3)c3ccccc23)n1CC1CCCCC1 [9/1] | 0.501 µM | 7.5 | 7.5 | – | – | – |
| CCC(C)(C)NS(=O)(=O)c1ccc(-c2cc(C(=O)NC3COC3)c(C)n2CC2CCCCC2)cc1C(C)(C)C [9/7] | 0.501 µM | 7.5 | 7.5 | – | – | – |
| CCN(C(C)(C)C)S(=O)(=O)c1ccc(-c2cc(C(=O)NCC(C)(C)O)c(C)n2CC2CCCCC2)cc1C(C)(C)C [9/10] | – | – | – | 0.316 µM | 6.5/7.7/7.2 | 6.5/7.7/7.2 |
| Cc1c(C(=O)NC2COC2)cc(-c2cc(C(C)(C)C)nc(C(F)(F)F)c2)n1CC1CCCCC1 [9/15] | – | – | – | 0.316 µM | 6.5/6.5/6.5 | 6.5/6.5/6.5 |
| Cc1c(C(=O)NCC(C)(C)C(=O)NCCO)cc(-c2cc(C(C)(C)C)c3c(c2)C2(CCO3)CC2)n1CC1CCCCC1 [11/5] | – | – | – | 0.316 µM | 6.5/7.3/7.4 | 6.5/7.3/7.4 |
| Cc1c(C(=O)NC2COC2)cc(-c2cc(C(=O)N(C)C(C)(C)C)cc(C(F)(F)F)c2)n1CC1CCCCC1 [15/1] | – | – | – | 2 µM | 5.7/6.6/6.7 | 5.7/6.6/6.7 |
| Cc1c(C(=O)NC2COC2)cc(-c2cc(C(=O)N(C)C(C)(C)C)cc(C(C)(C)C)c2)n1CC1CCCCC1 [15/4] | – | – | – | 1.58 µM | 5.8/7.3/7.3 | 5.8/7.3/7.3 |
| Cc1c(C(=O)NC2COC2)cc(-c2cc(C(=O)NC(C)(C)C)cc(C(C)(C)C)c2)n1CC1CCCCC1 [15/5] | – | – | – | 0.794 µM | 6.1/7.6/7.7 | 6.1/7.6/7.7 |

The next lines start with results.

| IC50 [1, 2] | pIC50 (FF) (RORγ; [3]) | pIC50 (REN) (RORγ; [4]) | Compound | IC50 [1] | pIC50 (FF) (RORγ) | pIC50 (REN) (RORγ) |
| --- | --- | --- | --- | --- | --- | --- |
| 0.501 µM | 6.0 | 6.2 | Cc1c(C(N)=O)cc(-c2cc(C(C)(C)C)cc(C(C)(C)C)c2)n1S(=O)(=O)N1CCCCC1 [7/8] | – | – | – |
| 0.631 µM | 7.4 | 7.5 | Cc1c(C(=O)NCC(C)(C)O)cc(-c2cn(S(=O)(=O)N3CCCCC3)c3ccccc23)n1CC1CCCCC1 [9/2] | – | – | – |
| 0.316 µM | 7.1 | 7.1 | Cc1c(C(=O)NCC(C)(C)O)cc(-c2cc(C(C)(C)C)cc(S(=O)(=O)N(C)C(C)(C)C)c2)n1CC1CCCCC1 [9/3] | – | – | – |
| 0.631 µM | 7.1 | 7.2 | Cc1c(C(=O)NC2COC2)cc(-c2ccc(S(=O)(=O)NC(C)(C)C)c(C(C)(C)C)c2)n1CC1CCCCC1 [9/4] | – | – | – |
| 0.316 µM | 7.2 | 7.2 | Cc1c(C(=O)NC2COC2)cc(-c2ccc(S(=O)(=O)N(C)C(C)(C)C)c(C(C)(C)C)c2)n1CC1CCCCC1 [9/5] | – | – | – |
| 0.251 µM | 7.7 | 7.8 | CCN(C(C)(C)C)S(=O)(=O)c1ccc(-c2cc(C(=O)NC3COC3)c(C)n2CC2CCCCC2)cc1C(C)(C)C [9/6] | – | – | – |
| 0.631 µM | 7.0 | 7.1 | Cc1c(C(=O)NCC(C)(C)O)cc(-c2ccc(S(=O)(=O)NC(C)(C)C)c(C(C)(C)C)c2)n1CC1CCCCC1 [9/8] | – | – | – |
| 0.501 µM | 7.2 | 7.3 | Cc1c(C(=O)NCC(C)(C)O)cc(-c2ccc(S(=O)(=O)N(C)C(C)(C)C)c(C(C)(C)C)c2)n1CC1CCCCC1 [9/9] | – | – | – |
| 0.501 µM | 7.7 | 7.8 | CCC(C)(C)NS(=O)(=O)c1ccc(-c2cc(C(=O)NCC(C)(C)O)c(C)n2CC2CCCCC2)cc1C(C)(C)C [9/11] | – | – | – |
| 1.58 µM | 6.3 | 6.5 | Cc1c(C(=O)NC2COC2)cc(-c2cnc(NCC(C)(C)C)c(C(F)(F)F)c2)n1CC1CCCCC1 [9/12] | – | – | – |
| 1 µM | 6.0 | 6.1 | Cc1c(C(=O)NC2COC2)cc(-c2cnc(OCC(C)(C)C)c(C(F)(F)F)c2)n1CC1CCCCC1 [9/13] | – | – | – |
| 7.94 µM | 6.3 | 6.2 | Cc1c(C(=O)NC2COC2)cc(-c2cc(C(F)(F)F)c(=O)n(CC(C)(C)C)c2)n1CC1CCCCC1 [9/14] | – | – | – |
| 0.251 µM | 6.9 | 6.9 | Cc1c(C(=O)NCC(C)(C)C(=O)N(C)C)cc(-c2cc(C(C)(C)C)c3c(c2)C2(CCO3)CC2)n1CC1CCCCC1 [11/2] | – | – | – |
| 1 µM | 6.5 | 6.5 | Cc1c(C(=O)NCC(C)(C)C(=O)NCCC(=O)O)cc(-c2cc(C(C)(C)C)c3c(c2)C2(CCO3)CC2)n1CC1CCCCC1 [11/3] | – | – | – |
| 0.398 µM | 6.9 | 7.0 | Cc1c(C(=O)NCC(C)(C)C(=O)NCCS(C)(=O)=O)cc(-c2cc(C(C)(C)C)c3c(c2)C2(CCO3)CC2)n1CC1CCCCC1 [11/4] | – | – | – |
| 0.251 µM | 8.0 | 8.2 | Cc1c(C(=O)NCC(C)(C)C(=O)NCCCO)cc(-c2cc(C(C)(C)C)c3c(c2)C2(CCO3)CC2)n1CC1CCCCC1 [11/6] | – | – | – |
| 0.251 µM | 7.1 | 7.2 | Cc1c(C(=O)NCC(C)(C)C(=O)NCCCCO)cc(-c2cc(C(C)(C)C)c3c(c2)C2(CCO3)CC2)n1CC1CCCCC1 [11/7] | – | – | – |
| 1 µM | 6.3 | 6.3 | Cc1c(C(=O)NC2COC2)cc(-c2cc(C(=O)NC(C)C)cc(C(F)(F)F)c2)n1CC1CCCCC1 [15/2] | – | – | – |
| 0.398 µM | 7.0 | 7.1 | CCC(C)(C)NC(=O)c1cc(-c2cc(C(=O)NC3COC3)c(C)n2CC2CCCCC2)cc(C(F)(F)F)c1 [15/3] | – | – | – |
